The structures appear in SMILES notation. Calls of active or inactive are those of the source. The calls are words filed in the database; no cut-off is given here.

In one series the test system is MT4. The experiment in a line: Cytotoxicity against human MT4 cells at 100 ug/mL. The format is cell-based.
Series [1] has as its system Human immunodeficiency virus 1. The experiment in a line: Antiviral activity against HIV1 in human MT4 cells assessed as inhibition of virus-induced cytopathic effect at 100 ug/mL. Type of series: functional, organism-based. On the technique in general: Protection from cytopathic effect is a common read-out in antiviral testing.

Take `COC(=O)[C@]1(C)[C@@H]([C@@]2(C)C=CC(=O)C(C)(C)[C@@H]2CO[C@@H]2O[C@H](CO)[C@@H](O)[C@H](O)[C@H]2O)CC[C@@]2(C)[C@H](c3ccoc3)OC(=O)[C@H]3O[C@]321` [KHAYANOSIDE]: the Activity result with MT4 is listed as “Not Active”. For the same compound, the result in series [1] was inactive.

`COC(=O)C[C@H]1[C@]2(C)C[C@]3(O)[C@H]4[C@@H](O[C@]56CC(=O)O[C@@H](c7ccoc7)[C@]5(C)CC[C@H]([C@]13C)[C@]46O)[C@H]2O` [khayanolide D]: the Activity result in the series on MT4 is reported as “Not Active”. Also, the result in series [1] was inactive.

For `COC(=O)[C@H](O)[C@@H]1[C@@]2(C)[C@H]3CC[C@@]4(C)[C@H](c5ccoc5)OC(=O)C[C@@]45O[C@H]4C(=O)[C@@]1(C)C[C@]2(OC(C)=O)[C@@H]4[C@@]35O` [khayanolide E], the Activity result with MT4 is “Not Active”. Moreover, the outcome in series [1] was inactive.

These data come from ChEMBL document CHEMBL1150622, “Three new modified limonoids from Khaya senegalensis” (J Nat Prod, 2002).
